Laboratory results taken from patent US11312721B2 (priority 2015, dated 2022).

Columns and labels:
GABAA receptors (α5β2γ2) = target: T1, GABAA receptors (α5β2γ2) (Homo sapiens, UniProt P18507+P31644); assay: Positive allosteric modulator activity: potentiation of EC20 GABA current in oocytes; type: cell-based; conditions: read-out: GABA α5 functional potentiation
T1 construct: expressed in transfected cells
Protocol: On day 1, 1 ng/32 nL of GABAA α5β2γ2 cDNA was injected into one oocyte. Test starts on day 2. The cDNA injected to the oocytes was a mix of alpha, beta and gamma, their ratio is 1:1:10 (by weight) and the total weight of the mixed 3 subunits to be injected in one oocyte was 1 ng in 32 nl volume. The injected oocytes can also be tested on day 3. In such case, the cDNA amount injected to the oocytes should be reduced by 20%.
1). 8 oocytes were placed in 8 chambers of OpusXpress and superfused with Modified Barth's Saline (MBS) at 3 mL/min. Glass electrodes back-filled with 3M KCl (0.5-3 megaohms) were used.
1). Repeat the above steps 1), 2) and 3) in the control test.
2). […] Divide Itest by IGABA to obtain potentiation (%).
3). Discard all tested oocytes, new oocytes were used and the above steps 1) and 2) were repeated to test second concentration of the same compound. Each oocyte was used for only one concentration test for a single test compound. The steps were repeated for other test compounds.

[1] = target: T2, α5β3γ2 GABAA receptors (Ltk cells) (Homo sapiens, UniProt P18507+P31644); assay: Binding activity on GABAAR: inhibition of [3H]Ro15-1788 binding
T2 construct: membranes
T2 sequence (P31644 32-462): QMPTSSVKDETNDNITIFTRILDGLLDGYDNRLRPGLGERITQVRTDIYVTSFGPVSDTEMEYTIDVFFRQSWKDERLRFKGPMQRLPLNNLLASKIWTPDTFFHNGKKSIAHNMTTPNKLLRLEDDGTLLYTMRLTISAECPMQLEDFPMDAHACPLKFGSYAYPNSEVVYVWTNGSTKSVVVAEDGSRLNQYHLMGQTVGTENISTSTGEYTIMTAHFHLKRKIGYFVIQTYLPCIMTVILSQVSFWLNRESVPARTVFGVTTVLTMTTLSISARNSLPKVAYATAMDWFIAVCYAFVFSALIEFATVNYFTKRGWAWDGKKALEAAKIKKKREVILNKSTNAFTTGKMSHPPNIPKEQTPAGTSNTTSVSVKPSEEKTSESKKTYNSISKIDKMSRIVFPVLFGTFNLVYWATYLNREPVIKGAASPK
T2 sequence (P28472 26-473 partner): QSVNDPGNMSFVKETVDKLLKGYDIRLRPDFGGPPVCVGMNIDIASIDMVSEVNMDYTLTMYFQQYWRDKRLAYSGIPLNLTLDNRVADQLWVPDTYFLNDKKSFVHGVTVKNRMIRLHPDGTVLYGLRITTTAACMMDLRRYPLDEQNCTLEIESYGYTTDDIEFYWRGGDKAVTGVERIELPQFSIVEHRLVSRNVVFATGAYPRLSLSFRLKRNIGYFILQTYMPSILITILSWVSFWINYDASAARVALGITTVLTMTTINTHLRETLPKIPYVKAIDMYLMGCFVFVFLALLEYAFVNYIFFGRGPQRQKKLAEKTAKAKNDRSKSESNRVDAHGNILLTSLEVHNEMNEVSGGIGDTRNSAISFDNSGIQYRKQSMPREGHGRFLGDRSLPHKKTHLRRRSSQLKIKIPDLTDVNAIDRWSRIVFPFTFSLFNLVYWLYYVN
T2 sequence (P18507 40-475): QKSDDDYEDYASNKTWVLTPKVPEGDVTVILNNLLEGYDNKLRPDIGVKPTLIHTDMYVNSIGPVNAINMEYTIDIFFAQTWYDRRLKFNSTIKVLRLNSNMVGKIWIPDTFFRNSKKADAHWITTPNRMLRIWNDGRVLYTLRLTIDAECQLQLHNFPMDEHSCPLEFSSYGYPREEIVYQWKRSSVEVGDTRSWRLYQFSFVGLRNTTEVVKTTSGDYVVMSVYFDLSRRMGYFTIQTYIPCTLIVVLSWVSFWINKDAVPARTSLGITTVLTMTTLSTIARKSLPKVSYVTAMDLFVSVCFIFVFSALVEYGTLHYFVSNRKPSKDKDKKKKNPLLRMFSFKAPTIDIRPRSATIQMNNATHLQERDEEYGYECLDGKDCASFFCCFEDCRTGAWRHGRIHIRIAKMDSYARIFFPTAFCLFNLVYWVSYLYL
Protocol: Tissue culture and Membrane Preparation: The binding was performed on Ltk cells stably expressing GABAA receptors: α1β1γ2, α2β3γ2, α3β3γ2 and α5β3γ2 (provided by Merck Co., NJ, USA). Cells were seeded in 100 mm culture plates in DMEM/F12 medium containing 10% serum and antibiotics in 5% CO2 and allowed to grow for 1-2 days. GABAAR expression was then induced by dexamethasone as follows: 0.5 μM for 1 day for α5 containing and 2 μM for 3 days for α1, α2 and α3 containing GABAARs. After induction, cells were collected by scraping into Dulbecco's Phosphate buffered saline (DPBS, pH 7.4, Invitrogen, Carlsbad, Calif., USA) and centrifuged at 150×g for 10 min. The pellet was washed twice by re-suspension and centrifugation. The cell pellets from at least 5 different preps were combined, suspended in the binding assay buffer (50 mM KH2PO4; 1 mM EDTA; 0.2 M KCl, pH 7.4) and membranes prepared by sonication (3-5 times, 30 sec) using Branson Sonifier 150 (G. Heinmann, Germany). Protein content was determined using BCA assay (Bio-Rad Labs, Reinach, Switzerland) with Bovine Serum Albumin (Sigma Aldrich, St. Louis, Mo., USA) as the standard. Aliquots were prepared and stored at −20° C. for further use in binding assays.
Ligand Binding: Saturation binding curves were obtained by incubating membranes with increasing concentrations (0.01-8 nM) of [^3H]Ro15-1788 (Flumazepil, 75-85 Ci/mmol, PerkinElmer, MA, USA), with nonspecific binding measured in the presence of 10 μM diazepam.
All binding assays were performed for 1 h at 4° C. in assay buffer. The total assay volume was 0.5 ml containing 0.2 mg/ml protein for α5 and 0.4 mg/ml for α1, α2, and α3 containing GABAAR membranes. Incubations were terminated by filtration through GF/B filters using a 24-Cell Harvestor (Brandel, Gaithersburg, Md., USA) followed by 3 washes with ice-cold assay buffer. Filters were transferred to scintillation vials, 5 ml scintillation liquid added, vortex-mixed and kept in dark. Next day, radioactivity was obtained using a scintillation counter (Beckman Coulter, Brea, Calif., USA). All assays were performed in triplicate.
Data Analyses: Saturation and inhibition curves were obtained using GraphPad Prism software (GraphPad Software, Inc., CA, USA).

T1 sequence (P31644 32-462): as the sequence (P31644 32-462) above
T1 sequence (P47870 25-512 partner limits assumed): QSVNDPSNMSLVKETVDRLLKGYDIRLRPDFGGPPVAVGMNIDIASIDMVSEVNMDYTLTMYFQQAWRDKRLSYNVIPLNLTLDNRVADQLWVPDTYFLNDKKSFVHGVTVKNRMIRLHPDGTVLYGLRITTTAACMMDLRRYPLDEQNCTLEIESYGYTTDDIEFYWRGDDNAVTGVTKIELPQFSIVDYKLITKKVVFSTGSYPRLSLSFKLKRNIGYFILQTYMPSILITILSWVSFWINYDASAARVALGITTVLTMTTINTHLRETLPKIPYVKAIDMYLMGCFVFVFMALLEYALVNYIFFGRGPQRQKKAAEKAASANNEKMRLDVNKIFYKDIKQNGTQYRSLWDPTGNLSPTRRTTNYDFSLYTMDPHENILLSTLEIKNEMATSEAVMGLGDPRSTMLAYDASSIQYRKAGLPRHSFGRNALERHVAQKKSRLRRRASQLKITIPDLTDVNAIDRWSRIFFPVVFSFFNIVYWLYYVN
T1 sequence (P18507 40-475): as the sequence (P18507 40-475) above

Row | SMILES | activation at 0.1 µM (GABAA receptors (α5β2γ2)) [%] | Ki [1] [nM]
1 | COc1ccc2c(c1)-c1nnc(COc3cccc(F)c3)n1Cc1c(C#N)ncn1-2 [Compound 196] | 20 to 49 | < 99
2 | CC(C)c1nc(-c2ncn3c2Cn2c(COc4ccc(F)cc4)nnc2-c2cc(F)ccc2-3)no1 [Compound 189] | 20 to 49 | < 99
3 | COc1ccc2c(c1)-n1nnc(COc3ccc(F)cc3)c1Cc1c(-c3noc(C)n3)ncn1-2 [Compound 180] | 20 to 49 | < 99
4 | CCc1nc(-c2ncn3c2Cc2c(Cc4ccccc4)nnn2-c2cc(OC)ccc2-3)no1 [Compound 194] | > 50 | < 99
5 | COc1ccc2c(c1)-n1nnc(COc3ccc(F)cc3)c1Cc1c(C#N)ncn1-2 [Compound 222] | 20 to 49 | < 99
6 | CCOCc1nnc2n1Cc1c(-c3nc(C(C)C)no3)ncn1-c1ccc(Cl)cc1-2 [Compound 254] | 20 to 49 | < 99
7 | Clc1ccc2c(c1)-c1nnc(COc3ccccc3)n1Cc1c(Br)ncn1-2 [Compound 202] | 20 to 49 | < 99
8 | CC(C)c1nc(-c2ncn3c2Cn2c(COc4cccnc4)nnc2-c2cc(F)ccc2-3)no1 [Compound 185] | > 50 | < 99
9 | COc1ccc2c(c1)-n1nncc1Cc1c(C3=N[C@H](c4ccccc4)CO3)ncn1-2 [Compound 290] | 20 to 49 | < 99
10 | COCc1nnc2n1Cc1c(C#Cc3ccccc3C)ncn1-c1ccc(Cl)cc1-2 [Compound 293] | 20 to 49 | < 99
11 | CCOCc1nnc2n1Cc1c(C3=N[C@H](c4ccccc4)CO3)ncn1-c1ccc(Cl)cc1-2 [Compound 271] | > 50 | < 99
12 | C#Cc1ncn2c1Cn1c(COc3ccccc3)nnc1-c1cc(Cl)ccc1-2 [Compound 205] | 20 to 49 | < 99
13 | COCc1nnc2n1Cc1c(C3=NC(C)CO3)ncn1-c1ccc(Cl)cc1-2 (centres unmarked) [Compound 243] | 20 to 49 | < 99
14 | COc1ccc2c(c1)-n1nnc(Cc3ccccc3)c1Cc1c(C#N)ncn1-2 [Compound 207] | 20 to 49 | < 99
15 | COc1ccc2c(c1)-c1nnc(COCc3cccc(F)c3)n1Cc1c(-c3noc(C(C)C)n3)ncn1-2 [Compound 183] | 20 to 49 | < 99
16 | COCc1nnc2n1Cc1c(C3=NCCO3)ncn1-c1ccc(Cl)cc1-2 [Compound 238] | 20 to 49 | < 99
17 | COCc1nnc2n1Cc1c(-c3ncco3)ncn1-c1ccc(Cl)cc1-2 [Compound 249] | 20 to 49 | < 99
18 | COCc1nnc2n1Cc1c(-c3noc(C(C)C)n3)ncn1-c1ccc(F)cc1-2 [Compound 186] | > 50 | < 99
19 | N#Cc1ncn2c1Cc1c(COc3ccccc3)nnn1-c1cc(Cl)ccc1-2 [Compound 226] | 20 to 49 | < 99
20 | COCc1nnc2n1Cc1c(C3=N[C@@H](c4ccccc4)CO3)ncn1-c1ccc(Cl)cc1-2 [Compound 264] | 20 to 49 | < 99
21 | CC(C)c1nc(-c2ncn3c2Cn2c(COc4cccc(F)c4)nnc2-c2cc(F)ccc2-3)no1 [Compound 188] | 20 to 49 | < 99
22 | Cc1nnn2c1Cc1c(C(=O)OCC(F)(F)F)ncn1-c1ccc(F)cc1-2 [Compound 114] | > 50 | –
23 | CCOCc1nnc2n1Cc1c(-c3noc(C(C)C)n3)ncn1-c1ccc(OC)cc1-2 [Compound 173] | > 50 | –
24 | CCOCc1nnc2n1Cc1c(-c3noc(C(C)C)n3)ncn1-c1ccc(F)cc1-2 [Compound 187] | 20 to 49 | < 99
25 | Cc1nc(-c2ncn3c2Cc2c(C)nnn2-c2cc(F)ccc2-3)no1 [Compound 145] | > 50 | –
26 | Cc1nnn2c1Cc1c(-c3nc(C(C)C)no3)ncn1-c1ccccc1-2 [Compound 132] | 20 to 49 | –

Row | SMILES | activation at 0.1 µM (GABAA receptors (α5β2γ2)) [%] | Ki [1] [nM]
27 | COc1ccc2c(c1)-n1nnc(COc3cccc(Br)c3)c1Cc1c(C#N)ncn1-2 [Compound 225] | 20 to 49 | < 99
28 | COc1ccc2c(c1)-c1nnc(COc3ccccc3Cl)n1Cc1c(-c3noc(C(C)C)n3)ncn1-2 [Compound 175] | 20 to 49 | –
29 | CCOC(=O)c1ncn2c1Cc1c(Cc3ccc(Cl)cc3)nnn1-c1cc(F)ccc1-2 [Compound 45] | 20 to 49 | –
30 | CCc1nc(-c2ncn3c2Cc2c(C)nnn2-c2cc(F)ccc2-3)no1 [Compound 155] | 20 to 49 | –
31 | COc1ccc2c(c1)-n1nnc(COc3ccccc3)c1Cc1c(-c3noc(C)n3)ncn1-2 [Compound 182] | 20 to 49 | < 99
32 | COc1ccc2c(c1)-c1nnc(COCc3ccccc3F)n1Cc1c(-c3noc(C(C)C)n3)ncn1-2 [Compound 184] | 20 to 49 | < 99
33 | COc1ccc2c(c1)-c1nnc(COc3ccc(F)cc3)n1Cc1c(-c3noc(C(C)C)n3)ncn1-2 [Compound 172] | > 50 | –
34 | CCOC(=O)c1ncn2c1Cc1c(C)nnn1-c1cc(OC)ccc1-2 [Compound 1] | 20 to 49 | –
35 | CCOC(=O)c1ncn2c1Cn1c(COc3ccccc3)nnc1-c1cc(F)ccc1-2 [Compound 137] | 20 to 49 | –
36 | COc1ccc2c(c1)-c1nnc(COCc3cccnc3)n1Cc1c(-c3noc(C(C)C)n3)ncn1-2 [Compound 203] | 20 to 49 | < 99
37 | CCOCc1nnc2n1Cc1c(-c3nc(C)no3)ncn1-c1ccc(Cl)cc1-2 [Compound 255] | 20 to 49 | < 99
38 | COc1ccc2c(c1)-c1nnc(COc3ccccc3)n1Cc1c(C(=O)OC(C)C)ncn1-2 [Compound 120] | 20 to 49 | –
39 | COc1ccc2c(c1)-n1nncc1Cc1c(-c3nc(C(C)C)no3)ncn1-2 [Compound 257] | 20 to 49 | < 99
40 | COc1ccc2c(c1)-c1nnc(COc3ccc(F)cc3)n1Cc1c(-c3noc(C)n3)ncn1-2 [Compound 163] | 20 to 49 | –
41 | CCc1nc(-c2ncn3c2Cc2c(Cc4ccc(F)cc4)nnn2-c2cc(OC)ccc2-3)no1 [Compound 195] | 20 to 49 | < 99
42 | Cc1noc(-c2ncn3c2Cc2c(C)nnn2-c2cc(F)ccc2-3)n1 [Compound 110] | 20 to 49 | –
43 | COCc1nnc2n1Cc1c(-c3nc(C)no3)ncn1-c1ccc(OC)cc1-2 [Compound 128] | 20 to 49 | –
44 | COc1ccc2c(c1)-n1nnc(Cc3ccccc3)c1Cc1c(Br)ncn1-2 [Compound 212] | 20 to 49 | –
45 | CCc1nc(-c2ncn3c2Cn2c(COc4ccccc4)nnc2-c2cc(F)ccc2-3)no1 [Compound 158] | 20 to 49 | –
46 | CCOC(=O)c1ncn2c1Cn1c(COc3ccccc3)nnc1-c1cc(OC)ccc1-2 [Compound 55] | 20 to 49 | –
47 | COc1ccc2c(c1)-c1nnc(COc3ccccc3)n1Cc1c(-c3noc(C)n3)ncn1-2 [Compound 162] | 20 to 49 | –
48 | CC(C)c1nc(-c2ncn3c2Cn2c(COc4ccccc4)nnc2-c2cc(F)ccc2-3)no1 [Compound 147] | 20 to 49 | –
49 | CCOC(=O)c1ncn2c1Cc1c(C)nnn1-c1cc(F)ccc1-2 [Compound 2] | 20 to 49 | –
50 | CCOC(=O)c1ncn2c1Cc1c(CN3CCCC3)nnn1-c1cc(OC)ccc1-2 [Compound 48] | 20 to 49 | –
51 | COc1ccc2c(c1)-c1nnc(COc3ccccc3)n1Cc1c(-c3noc(C(C)C)n3)ncn1-2 [Compound 171] | > 50 | –
